Measured values: the supplement of paper PMC10307832

What was measured:
Assay in all cases: relative viability (nuclei count vs DMSO), 5 days (fraction); higher = more cells survive
[1] = compound: C1=CC=C2C(=C1)N=C(S2)C(C#N)C3=NC(=NC=C3)NCCC4=CN=CC=C4 + CS(=O)(=O)N1CCN(Cc2cc3nc(-c4cccc5[nH]ncc45)nc(N4CCOCC4)c3s2)CC1 [Pictilisib] (partner 1 µM)
In short: (§1)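 Five library-drug doses in √10 steps were combined with a fixed anchor-drug dose, or a single drug was given alone, by pin tool to lung cancer cell lines in 1536-well plates the day after seeding. Nuclei were stained and counted after 5 days. Relative viability is the nuclei count in treated wells over that in vehicle wells, taken as the median of duplicate plates.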

[2] = compound: C#Cc1cccc(Nc2ncnc3cc(OC)c(OCCCCCCC(=O)NO)cc23)c1 [CUDC-101] + CCNC(=O)c1noc(-c2cc(C(C)C)c(O)cc2O)c1-c1ccc(CN2CCOCC2)cc1 [Luminespib] (partner 0.01 µM)
In short: as §1

[3] = compound: COc1cc(N2CCC(N3CCN(C)CC3)CC2)ccc1Nc1ncc(Cl)c(Nc2ccccc2S(=O)(=O)C(C)C)n1 [NVP-TAE684] + Nc1nc2[nH]cc(CCc3ccc(C(=O)N[C@@H](CCC(=O)O)C(=O)O)cc3)c2c(=O)[nH]1 [Pemetrexed] (partner 0.2 µM)
In short: as §1

[4] = compound: C1=CC=C2C(=C1)N=C(S2)C(C#N)C3=NC(=NC=C3)NCCC4=CN=CC=C4 + NC(=O)Nc1cc(-c2cccc(F)c2)sc1C(=O)N[C@H]1CCCNC1 [AZD7762] (partner 0.2 µM)
In short: as §1

A549
relative viability ([1]; first compound 0.005 µM): 0.379
relative viability ([1]; first compound 0.01581 µM): 0.487
relative viability ([1]; first compound 0.05 µM): 0.414
relative viability ([1]; first compound 0.1581 µM): 0.62
relative viability ([1]; first compound 0.5 µM): 0.496

LU99A
relative viability ([2]; first compound 0.01 µM): 0.224
relative viability ([2]; first compound 0.03162 µM): 0.247
relative viability ([2]; first compound 0.1 µM): 0.245
relative viability ([2]; first compound 0.3162 µM): 0.261
relative viability ([2]; first compound 1 µM): 0.248
relative viability ([1]; first compound 0.005 µM): 0.281
relative viability ([1]; first compound 0.01581 µM): 0.354
relative viability ([1]; first compound 0.05 µM): 0.336
relative viability ([1]; first compound 0.1581 µM): 0.394
relative viability ([1]; first compound 0.5 µM): 0.338
relative viability ([3]; first compound 0.2 µM): 0.192
relative viability ([3]; first compound 0.6325 µM): 0.147
relative viability ([3]; first compound 2 µM): 0.194
relative viability ([4]; first compound 0.005 µM): 0.444
relative viability ([4]; first compound 0.01581 µM): 0.469
relative viability ([4]; first compound 0.1581 µM): 0.343
relative viability ([4]; first compound 0.5 µM): 0.262

NCI-H596
relative viability ([2]; first compound 0.01 µM): 1.12
relative viability ([2]; first compound 0.03162 µM): 0.936
relative viability ([2]; first compound 0.1 µM): 0.923
relative viability ([2]; first compound 0.3162 µM): 0.927
relative viability ([2]; first compound 1 µM): 0.972
relative viability ([1]; first compound 0.005 µM): 0.378
relative viability ([1]; first compound 0.01581 µM): 0.349
relative viability ([1]; first compound 0.05 µM): 0.383
relative viability ([1]; first compound 0.1581 µM): 0.46
relative viability ([1]; first compound 0.5 µM): 0.392
relative viability ([3]; first compound 0.2 µM): 0.56
relative viability ([3]; first compound 0.6325 µM): 0.43
relative viability ([3]; first compound 2 µM): 0.45
relative viability ([4]; first compound 0.005 µM): 0.985
relative viability ([4]; first compound 0.01581 µM): 1.31
relative viability ([4]; first compound 0.05 µM): 1
relative viability ([4]; first compound 0.1581 µM): 1.2
relative viability ([4]; first compound 0.5 µM): 1.09

A-427
relative viability ([2]; first compound 0.01 µM): 0.919
relative viability ([2]; first compound 0.03162 µM): 0.92
relative viability ([2]; first compound 0.1 µM): 0.864
relative viability ([2]; first compound 0.3162 µM): 0.75
relative viability ([2]; first compound 1 µM): 0.55
relative viability ([1]; first compound 0.005 µM): 0.723
relative viability ([1]; first compound 0.01581 µM): 0.664
relative viability ([1]; first compound 0.05 µM): 0.726
relative viability ([1]; first compound 0.1581 µM): 0.844
relative viability ([1]; first compound 0.5 µM): 0.878
relative viability ([3]; first compound 0.6325 µM): 0.914
relative viability ([3]; first compound 2 µM): 0.788
relative viability ([4]; first compound 0.005 µM): 0.816
relative viability ([4]; first compound 0.01581 µM): 0.727
relative viability ([4]; first compound 0.05 µM): 0.682
relative viability ([4]; first compound 0.1581 µM): 0.764
relative viability ([4]; first compound 0.5 µM): 0.645

SW 900
relative viability ([2]; first compound 0.01 µM): 0.168
relative viability ([2]; first compound 0.03162 µM): 0.181
relative viability ([2]; first compound 0.1 µM): 0.185
relative viability ([2]; first compound 0.3162 µM): 0.157
relative viability ([2]; first compound 1 µM): 0.174
relative viability ([3]; first compound 0.2 µM): 0.548
relative viability ([3]; first compound 0.6325 µM): 0.443
relative viability ([3]; first compound 2 µM): 0.449
relative viability ([4]; first compound 0.005 µM): 0.693
relative viability ([4]; first compound 0.01581 µM): 0.634
relative viability ([4]; first compound 0.05 µM): 0.548
relative viability ([4]; first compound 0.1581 µM): 0.622
relative viability ([4]; first compound 0.5 µM): 0.533

COR-L 105
relative viability ([2]; first compound 0.01 µM): 0.768
relative viability ([2]; first compound 0.03162 µM): 0.701
relative viability ([2]; first compound 0.1 µM): 0.845
relative viability ([2]; first compound 0.3162 µM): 0.831
relative viability ([2]; first compound 1 µM): 0.476
relative viability ([1]; first compound 0.005 µM): 0.345
relative viability ([1]; first compound 0.01581 µM): 0.367
relative viability ([1]; first compound 0.05 µM): 0.384
relative viability ([1]; first compound 0.1581 µM): 0.516
relative viability ([1]; first compound 0.5 µM): 0.428
relative viability ([3]; first compound 0.2 µM): 1.01
relative viability ([3]; first compound 0.6325 µM): 0.98
